From the NIST ThermoML archive (doi:10.1021/je060271a)

Details: 283.15 K, Liquid, Vibrating tube method

CCCCC(=O)OCC(COC(=O)CCCC)(COC(=O)CCCC)COC(=O)CCCC [pentaerythritol tetrapentanoate]
Details	mass density [kg/m3]
27222 kPa	1042.2
27265 kPa	1042.3
27300 kPa	1042.3
27336 kPa	1042.4
27379 kPa	1042.4
27415 kPa	1042.3
27450 kPa	1042.4
27493 kPa	1042.5
27528 kPa	1042.4
27564 kPa	1042.3
27608 kPa	1042.5
27645 kPa	1042.6
27681 kPa	1042.5
27718 kPa	1042.5
27762 kPa	1042.5
27798 kPa	1042.5
27842 kPa	1042.6
27879 kPa	1042.6
27916 kPa	1042.6
27961 kPa	1042.6
27998 kPa	1042.8
28035 kPa	1042.7
28074 kPa	1042.8
28121 kPa	1042.7
28158 kPa	1042.7
28196 kPa	1042.8
28241 kPa	1042.8
28279 kPa	1042.8
28316 kPa	1042.8
28354 kPa	1042.8
28400 kPa	1042.8
28438 kPa	1043
28477 kPa	1043
28524 kPa	1043
28563 kPa	1043
28610 kPa	1043
28652 kPa	1043
28691 kPa	1043.1
28730 kPa	1043.1
28770 kPa	1043
28816 kPa	1043.1
28856 kPa	1043.1
28896 kPa	1043.1
28944 kPa	1043.2
28984 kPa	1043.2
29024 kPa	1043.1
29072 kPa	1043.3
29112 kPa	1043.2
29153 kPa	1043.3
29194 kPa	1043.3
29244 kPa	1043.3
29285 kPa	1043.3
29333 kPa	1043.4
29375 kPa	1043.4
29416 kPa	1043.4
29458 kPa	1043.4
29508 kPa	1043.4
29549 kPa	1043.5
29592 kPa	1043.4
29642 kPa	1043.4
29685 kPa	1043.6
29737 kPa	1043.6
29782 kPa	1043.6
29825 kPa	1043.6
29869 kPa	1043.7
29926 kPa	1043.7
29972 kPa	1043.7
30019 kPa	1043.7
30074 kPa	1043.7
30106 kPa	1043.7
30144 kPa	1043.9
30175 kPa	1043.8
30205 kPa	1043.8
30243 kPa	1043.8
30275 kPa	1043.9
30307 kPa	1043.9
30340 kPa	1044
30379 kPa	1043.8
30413 kPa	1043.9
30453 kPa	1043.9
30485 kPa	1044
30517 kPa	1044
30549 kPa	1044
30588 kPa	1043.9
30621 kPa	1044
30653 kPa	1044.2
30692 kPa	1044
30724 kPa	1044.1
30757 kPa	1044.1
30795 kPa	1044.1
30828 kPa	1044.1
30860 kPa	1044.2
30899 kPa	1044.1
30932 kPa	1044.2
30965 kPa	1044.2
31004 kPa	1044.3
31038 kPa	1044.2
31071 kPa	1044.3
31110 kPa	1044.2
31144 kPa	1044.3
31178 kPa	1044.4
31218 kPa	1044.3
31252 kPa	1044.4
31285 kPa	1044.5
31325 kPa	1044.3
31359 kPa	1044.5
31393 kPa	1044.4
31427 kPa	1044.5
31468 kPa	1044.5
31503 kPa	1044.5
31544 kPa	1044.5
31578 kPa	1044.5
31613 kPa	1044.6
31650 kPa	1044.6
31685 kPa	1044.5
31726 kPa	1044.7
31762 kPa	1044.6
31797 kPa	1044.7
31839 kPa	1044.7
31874 kPa	1044.7
31909 kPa	1044.7
31951 kPa	1044.8
31987 kPa	1044.8
32023 kPa	1044.7
32066 kPa	1044.8
32103 kPa	1044.7
32141 kPa	1044.8
32177 kPa	1044.8
32214 kPa	1044.9
32257 kPa	1044.9
32294 kPa	1044.9
32337 kPa	1044.8
32373 kPa	1045.1
32410 kPa	1044.9
32447 kPa	1044.9
32491 kPa	1045
32528 kPa	1045
32572 kPa	1045
32609 kPa	1045.1
32647 kPa	1045.2
32691 kPa	1045.2
32728 kPa	1045.1
32766 kPa	1045.2
32804 kPa	1045.1
32850 kPa	1045.1
32887 kPa	1045.2
32925 kPa	1045.2
32971 kPa	1045.2
33008 kPa	1045.2
33055 kPa	1045.3
33093 kPa	1045.2
33133 kPa	1045.3
33172 kPa	1045.3
33218 kPa	1045.3
33258 kPa	1045.4
33297 kPa	1045.4
33344 kPa	1045.4
33383 kPa	1045.5
33430 kPa	1045.5
33471 kPa	1045.4
